What was measured:
Format in all cases: cell-based, human
[1] = system: cGAS expression; assay: cGAS expression (qPCR) in cGAS negative colon cancer cells after epigenetic drug treatment; details: LS174T, SW480, SW1417, SW48, HT116; 5 days; rescued: SW480 and HT116
Description: FIGS. 5A-5F show STING activation and cytosolic DNA pathway in colon cancer cells were mostly defective: A series of colon cancer cells as well as normal cell controls were either mock transfected or transfected with dsDNA90 at 3 μg/ml for 3 hours, and were analyzed by Immunofluorescence Microscopy for STING translocation (FIG. 5A), IRF3 translocation (FIG. 5B), and p65 translocation (FIG. 5C). (FIG. 5D) Cells, same as above, were either mock transfected or transfected with dsDNA90 at 3 μg/ml for indicated time periods followed by immunoblot analysis for STING phosphorylation as well as phosphorylation of TBK1, IRF3 and p65. β-actin was used as loading control. (FIG. 5E) Cells, same as above, were analyzed by qPCR for cGAS expression. (FIG. 5F) Cells that have undetectable level of cGAS in E were treated with 1 μM 5-azacytidine for […], followed by qPCR analysis for cGAS expression. […] Error bars indicate s.d.
FIGS. 15A-15E show cGAS expression is suppressed in many human colon cancer cell lines and can be partially recapitulated through DNA demethylation. […]
To complement the above study, the expression of cGAS in the colon cancer cell-lines was examined. […] Given these findings, examination of the expression of cGAS in 47 human colon cancers at various stages of tumorigenesis was analyzed (FIG. 13C). Expression of cGAS was low to undetectable in approximately 30% of cells analyzed. […]

[2] = system: STING-dependent dsDNA signaling; assay: STING signal activation by dsDNA90 in colon cancer cells after demethylation; details: for phosphorylation of TBK1 and IRF3 after dsDNA: 5AZADC 5 days then dsDNA90 3 μg/ml
[3] = system: STING and cGAS expression; assay: STING and cGAS expression in melanoma cells after 5AZADC (qPCR, immunoblot, RNA FISH); details: 5 days
Description: (§1) FIGS. 30A-30G show DNA demethylation partially recapitulated STING and cGAS expression in human melanoma cell lines. FIG. 30A, qPCR analysis of cGAS expression in indicated human melanoma cells mock treated or treated with 1 μM […] (5AZADC) for 5 days. FIG. 30B, Immunoblot analysis of STING in indicated human melanoma cells treated same as above. FIG. 30C, RNA FISH analysis of STING and cGAS in cells (same as above) treated with 5AZADC same as above. Representative images are shown at 1260×. Bar size, 400 nm. qPCR analysis of IFNB (FIG. 30D) and CXCL10 (FIG. 30E) in cells (same as above) treated with 5AZADC followed by dsDNA transfection at 3 μg/ml dsDNA90 for 3 hours. Immunofluorescence Microscopy analysis of IRF3 translocation (FIG. 30F) and STING translocation (FIG. 30G) in indicated cells treated same as in FIG. 30D. Representative images are shown at 1260×. Bar size, 500 nm.
In view of this, it was examined whether STING or cGAS expression was suppressed by epigenetic processes, such as by hypermethylation of the promoter regions (20, 21). Indeed, databank analysis indicated the presence of considerable CpG islands within the STING and cGAS promoter region. As such, melanoma cells lacking either STING or cGAS expression were treated with the de-methylating agent 5-Aza-2′-deoxycytidine (5AZADC) for 5 days and evaluated recapitulation of STING or cGAS expression. […] Therefore DNA hypermethylation is involved in silencing STING or cGAS expression in some melanoma cells (A375 and MeWo). However it is not yet clear why expression levels of STING are muted in the remainder melanoma cells (G361, SK-MEL-5). Other epigenetic modifications such as histone modifications or other transcription regulator factors such as miRNA could be involved in suppressing STING and/or cGAS expression (Jin et al., 2013, Yarbrough et al., 2014). To determine if reconstitution of STING/cGAS expression rescued STING-dependent dsDNA signaling, IFNB and CXCL10 induction was examined in 5AZADC treated melanoma cells following dsDNA stimulation. […] Thus, demethylating agents may be able to partially rescue STING-dependent innate immune gene induction in select melanoma cells.
Equal amounts of proteins were resolved on sodium dodecyl sulfate (SDS)-Polyacrylamide gels and then transferred to polyvinylidene fluoride (PVDF) membranes (Millipore). After blocking with 5% Blocking Reagent, membranes were incubated with various primary antibodies (and appropriate secondary antibodies). The image was resolved using an enhanced chemiluminescence system ECL (Thermo Scientific) and detected by autoradiography (Kodak). Antibodies: rabbit polyclonal antibody against STING was developed in our laboratory as described previously in Ishikawa et al, 2008; other antibodies were obtained from following sources: β-actin (Sigma Aldrich), p-IRF3 (Cell Signaling), IRF3 (Santa Cruz Biotechnology), p-p65 (Cell Signaling), p65 (Cell Signaling), p-TBK1 (Cell Signaling), TBK1 (Abcam), cGAS (Cell Signaling).
Total RNA was reverse-transcribed using QuantiTect Reverse Transcription Kit (Qiagen). Real-time PCR was performed with the TaqMan gene Expression Assay (Applied Biosystems).
STING and cGAS RNA probed was custom designed by ACD and RNA in situ Hybridization was performed using RNAscope® Multiplex Fluorescent Reagent Kit for cultured cells and 2-plex RNAscope® Reagent Kit for FFPE cells and tissue following the manufacturer's instruction.

[4] = system: STING-dependent dsDNA signaling; assay: IFNB and CXCL10 induction by dsDNA in 5AZADC treated melanoma cells
Description: as §1
In view of this, it was examined whether STING or cGAS expression was suppressed by epigenetic processes, such as by hypermethylation of the promoter regions (20, 21). Indeed, databank analysis indicated the presence of considerable CpG islands within the STING and cGAS promoter region. As such, melanoma cells lacking either STING or cGAS expression were treated with the de-methylating agent 5-Aza-2′-deoxycytidine (5AZADC) for 5 days and evaluated recapitulation of STING or cGAS expression. […] Therefore DNA hypermethylation is involved in silencing STING or cGAS expression in some melanoma cells (A375 and MeWo). However it is not yet clear why expression levels of STING are muted in the remainder melanoma cells (G361, SK-MEL-5). Other epigenetic modifications such as histone modifications or other transcription regulator factors such as miRNA could be involved in suppressing STING and/or cGAS expression (Jin et al., 2013, Yarbrough et al., 2014). […]
Total RNA was reverse-transcribed using QuantiTect Reverse Transcription Kit (Qiagen). […]

Nc1ncn([C@H]2C[C@H](O)[C@@H](CO)O2)c(=O)n1 [5AZADC, 5-Aza-2′-deoxycytidine]
cells in which cGAS expression was rescued [1]: 2 of the 5
expression of type I IFN and IL-1β after dsDNA ([2]; 5AZADC treated SW480 and HT116, dsDNA90 3 μg/ml for 3 hours): modest expression of type I IFN and IL-1β
phosphorylation of TBK1 and IRF3 after dsDNA ([2]; LS174T (cGAS not rescued)): not LS174T cells regained phosphorylation of TBK1 and IRF3
phosphorylation of TBK1 and IRF3 after dsDNA ([2]; SW480, HT116 (cGAS rescued)): regained phosphorylation of TBK1 and IRF3
cGAS expression ([3]; A375 cells): cGAS expression was recovered
STING expression ([3]; G361 and SK-MEL-5 cells): STING remained absent
STING expression ([3]; MeWo cells, immunoblot and RNA FISH): STING expression was restored
cGAS expression ([3]; SK-MEL-5 cells): partially restored
cGAS expression ([3]; SK-MEL-24 cells): did not seem to affect cGAS expression level
STING function following dsDNA stimulation ([4]; G361 or SK-MEL-5 cells): no STING function was observed
IFNB induction following dsDNA stimulation ([4]; STING rescued MeWo cells): modest expression of IFNB
IFNB and CXCL10 induction following dsDNA stimulation ([4]; cGAS rescued A375 cells): Induction of both IFNB and CXCL10 production was observed
